Reference: patent publication US5326694A, “Process for synthesizing human H2-prorelaxin, human H2-relaxin and fusion proteins thereof” (Howard Florey Institute of Experimental Physiology and …, priority 1982, dated 1994)
Ends that are not written are not given here.

System: spontaneous contractions of the rat uterus
Test: rat uterine contractility assay (Wiqvist & Paul)
Format: cell-based
Procedure: Using the above conditions chain combination yields from 1.5 to 6.0% have been achieved as measured by biological activity in the rat uterine contractility assay of Wiqvist & Paul (Acta Endocrinol., 29, 135-136, 1958).
Human relaxin H2 [S-thioethyl Cys^10,11,15 ] A(1-24) (4.2 mg dry wt., 2.4 mg peptide by amino acid analysis, 0.84 μmole) was dissolved in 500 μl of 0.1M glycine buffer pH 10.5 in a 3 ml stoppered plastic centrifuge tube. Human relaxin H2 [S-sulfo Cys^10,11 ] B(-1-24) (1.60 mg, 1.60 mg peptide by amino acid analysis, 0.33 μmole) dissolved in 200 μl of 0.1M glycine buffer pH 10.5 was added and the mixture agitated. An aliquot (23.0 μl, 2.21 μmole DTT) of a stock solution of dithithreitol (DTT) made up in 0.1M glycine buffer pH 10.5 (0.96 μmole DTT in 10 μl) was added to the peptide solution and following a brief agitation the reaction mixture was allowed to stand at 4° C. for 24 hours open to the air. The mixture was then centrifuged and aliquots of the supernatant solution tested for relaxin biological activity in the rat uterine contractility assay.
The synthetic S-sulfonated and S-thioethyl H2 human relaxin A(1-24) peptides were coupled to S-thioethyl H2 human relaxin B(-1-32) using the same chain combination procedures described previously for the shortened B-chain (-1-24). […]

“hRLX A(1-24)-B(-1-32): Authentic human relaxin H2: synthetic A chain (1-24) combined with full length B chain (-1-32) (Relaxin B chain DSWMEEVIKLCGRELVRAQIAICGMSTWS; Relaxin A chain QLYSALANKCCHVGCTKRSLARFC; ends and bridges not checked; cysteine pairing not given here; UniProt P04090 25-53; P04090 162-185, looked up)” was tested, and the “inhibition of uterine contractions by a 100 μl aliquot” value (100 μl aliquot of chain combination mixture, compared to native pig relaxin A22 B31 standard) was “completely inhibited uterine contractions” and the “inhibition of the spontaneous contractions of the rat uterus by aliquots of the chain combination reaction mixture” value (aliquots of supernatant of chain combination mixture) was “inhibited the spontaneous contractions of the rat uterus in a dose-related manner”.
